In ChEMBL document CHEMBL1130566, “A nonpeptidic agonist ligand of the human C5a receptor: Synthesis, binding affinity optimization and functional characterization” (Bioorg Med Chem Lett, 1997):

How the values were obtained:
[1] = biological target: T1, C5a anaphylatoxin chemotactic receptor 1 (Homo sapiens, UniProt P21730); assay: Tested for the ability to compete with [125I]-CO13 ([125I]-Y-F-K-A-Cha-G-L-dF-R) for binding to C5a anaphylatoxin chemotactic receptor from human neutrophil membrane preparations
T1 sequence (P21730 whole entry): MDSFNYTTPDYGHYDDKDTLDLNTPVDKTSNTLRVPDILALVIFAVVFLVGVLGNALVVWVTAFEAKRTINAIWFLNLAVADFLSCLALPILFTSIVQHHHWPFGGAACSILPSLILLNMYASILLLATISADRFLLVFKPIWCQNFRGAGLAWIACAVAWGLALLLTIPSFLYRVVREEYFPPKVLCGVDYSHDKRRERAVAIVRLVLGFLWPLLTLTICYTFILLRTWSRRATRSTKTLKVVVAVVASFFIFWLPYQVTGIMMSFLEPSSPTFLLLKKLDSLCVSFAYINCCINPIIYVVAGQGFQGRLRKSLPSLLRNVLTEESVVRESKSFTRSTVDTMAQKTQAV

[2] = biological target: T2, C5a anaphylatoxin chemotactic receptor 1 (Homo sapiens) (UniProt P21730); assay: Inhibition of [125I]C5a binding to C5a anaphylatoxin chemotactic receptor of human neutrophil membrane preparations at 30 uM.
T2 sequence (whole entry): T1 sequence (P21730 whole entry)

[3] = biological target: T1, C5a anaphylatoxin chemotactic receptor 1; assay: Tested for its ability to compete with [125I]C5a for binding to C5a anaphylatoxin chemotactic receptor of human neutrophil membrane preparations
[4] = biological target: T2, C5a anaphylatoxin chemotactic receptor 1 (Homo sapiens); assay: Tested for […] to evaluate its ability to block C5a induced myeloperoxide (MPO release from neutrophils (for antagonists) or induce MPO release (for agonists)
[5] = biological target: T2, C5a anaphylatoxin chemotactic receptor 1 (Homo sapiens); assay: Tested for the ability to compete with [125I]-CO13 [125I]-Y-F-K-A-Cha-G-L-dF-R) for binding to C5a anaphylatoxin chemotactic receptor of human neutrophil membrane preparations at 30 uM concentration
[6] = biological target: T2, C5a anaphylatoxin chemotactic receptor 1 (Homo sapiens); assay: Tested for the ability to compete with [125I]-CO13 [125I]-Y-F-K-A-Cha-G-L-dF-R) for binding to C5a anaphylatoxin chemotactic receptor of human neutrophil membrane preparations; details: concentration not given here
[7] = biological target: T1, C5a anaphylatoxin chemotactic receptor 1; assay: Tested for the its ability to compete with [125I]-CO13 [125I]-Y-F-K-A-Cha-G-L-dF-R) for binding to C5a anaphylatoxin chemotactic receptor of human neutrophil membrane preparations
[8] = biological target: T2, C5a anaphylatoxin chemotactic receptor 1 (Homo sapiens); assay: Tested for the ability to compete with [125I]C5a for binding to human C5a anaphylatoxin chemotactic receptor of human neutrophil membrane preparations at 30 uM concentration

SMILES | IC50 [1] [nM] | inhibition [2] [%] | IC50 [3] [nM] | also measured
N=C(N)NCCC[C@H]1NC(=O)N([C@H](Cc2ccc3ccccc3c2)C(=O)N2CCC3(CCc4ccccc43)CC2)C1=O | 2000 | 67 | – | –
N=C(N)NCCC[C@@H]1NC(=O)N([C@H](Cc2ccccc2)C(=O)N2CCC3(CCc4ccccc43)CC2)C1=O | 4000 | 39 | – | –
N=C(N)NCCC[C@H]1NC(=O)N([C@H](Cc2ccc(O)cc2)C(=O)N2CCC3(CCc4ccccc43)CC2)C1=O | 4000 | – | – | –
CC(C)[C@H](C(=O)N1CCC2(CCc3ccccc32)CC1)N1C(=O)N[C@H](CCCN=C(N)N)C1=O | 1200 | 70 | – | –
N=C(N)NCCC[C@H]1NC(=O)N([C@H](CC2CCCCC2)C(=O)N2CCC3(C=Cc4ccccc43)CC2)C1=O | 300 | – | 1500 | –
CC[C@@H](C)[C@H](C(=O)N1CCC2(CCc3ccccc32)CC1)N1C(=O)N[C@H](CCCN=C(N)N)C1=O | 200 | – | 1200 | Release [4]: 31%
N=C(N)NCCC[C@H]1NC(=O)N(C(CCc2ccccc2)C(=O)N2CCC3(CCc4ccccc43)CC2)C1=O (stereo partly specified) | 3000 | 46 | – | –
CC(=O)OCC1(c2ccccc2)CCN(C(=O)[C@@H](CC2CCCCC2)N2C(=O)N[C@H](CCCN=C(N)N)C2=O)CC1 | – | 35 | – | inhibition [5]: 48%
N=C(N)NCCC[C@H]1NC(=O)N([C@H](Cc2ccccc2)C(=O)N2CCC3(CCc4ccccc43)CC2)C1=O | 800 | – | 8000 | –
NCCCC[C@H]1NC(=O)N([C@H](CC2CCCCC2)C(=O)N2CCC3(CCc4ccccc43)CC2)C1=O | 4000 | – | – | –
NC(=O)NCCC[C@H]1NC(=O)N([C@H](CC2CCCCC2)C(=O)N2CCC3(CCc4ccccc43)CC2)C1=O | – | – | – | inhibition [5]: 58%
Cc1cccc(C)c1N1CCN(C(=O)[C@@H](CC2CCCCC2)N2C(=O)N[C@H](CCCN=C(N)N)C2=O)CC1 | 40 | – | 220 | Release [4]: 78%
Nc1ccc(C[C@H]2NC(=O)N([C@H](CC3CCCCC3)C(=O)N3CCC4(CCc5ccccc54)CC3)C2=O)cc1 | – | – | – | inhibition [5]: 75%
Cc1ccccc1N1CCN(C(=O)[C@@H](CC2CCCCC2)N2C(=O)N[C@H](CCCN=C(N)N)C2=O)CC1 | 40 | – | 350 | Release [4]: 76%
CCC[C@H](C(=O)N1CCC2(CCc3ccccc32)CC1)N1C(=O)N[C@H](CCCN=C(N)N)C1=O | 3000 | 63 | – | –
N=C(N)NCCC[C@H]1NC(=O)N([C@H](CC2CCCCC2)C(=O)N2CCC(c3ccccc3)CC2)C1=O | 30 | – | 400 | Release [4]: 88%
N=C(N)NCCC[C@H]1NC(=O)N([C@H](Cc2c[nH]c3ccccc23)C(=O)N2CCC3(CCc4ccccc43)CC2)C1=O | 450 | – | 5000 | –
N=C(N)NCCC[C@H]1NC(=O)N([C@H](Cc2cccc3ccccc23)C(=O)N2CCC3(CCc4ccccc43)CC2)C1=O | 11000 | 77 | – | –

SMILES | IC50 [1] [nM] | inhibition [2] [%] | IC50 [3] [nM] | also measured
CCCC[C@H](C(=O)N1CCC2(CCc3ccccc32)CC1)N1C(=O)N[C@H](CCCN=C(N)N)C1=O | – | 20 | – | inhibition [6]: 54%
N=C(N)NCCC[C@H]1NC(=O)N([C@H](CC2CCCCC2)C(=O)N2CCC3(CCc4ccccc43)CC2)C1=O | 25 | – | 300 | Release [4]: 86%
N=C(N)NCCC[C@H]1NC(=O)N([C@H](CC2CCCCC2)C(=O)N2CCN(c3ccccc3)CC2)C1=O | 1000 | 66 | – | –
N=C(N)NCCC[C@H]1NC(=O)N([C@H](Cc2ccc(-c3ccccc3)cc2)C(=O)N2CCC3(CCc4ccccc43)CC2)C1=O | – | – | 2300 | IC50 [7]: 900 nM
N=C(N)NCCC[C@H]1NC(=O)N([C@H](CC2CCCCC2)C(=O)N2CCC3(CC2)CC(=O)c2ccccc23)C1=O | 1500 | 58 | – | –
N=C(N)NCCC[C@H]1NC(=O)N([C@@H](C(=O)N2CCC3(CCc4ccccc43)CC2)C(c2ccccc2)c2ccccc2)C1=O | – | – | – | inhibition [8]: 75%
N=C(N)NCCCC[C@H]1NC(=O)N([C@H](CC2CCCCC2)C(=O)N2CCC3(CCc4ccccc43)CC2)C1=O | 300 | – | – | –
N=C(N)NCCC[C@H]1NC(=O)N([C@H](CC2CCC(C3CCCCC3)CC2)C(=O)N2CCC3(CCc4ccccc43)CC2)C1=O (stereo partly specified) | 5000 | 26 | – | –
CC(C)c1ccccc1N1CCN(C(=O)[C@@H](CC2CCCCC2)N2C(=O)N[C@H](CCCN=C(N)N)C2=O)CC1 | – | – | – | inhibition [5]: 14%
N=C(N)NCCC[C@H]1NC(=O)N([C@H](Cc2ccc(F)cc2)C(=O)N2CCC3(CCc4ccccc43)CC2)C1=O | 230 | 75 | – | –
N=C(N)NCCC[C@H]1NC(=O)N([C@H](CC(=O)N2CCCCC2)C(=O)N2CCC3(CCc4ccccc43)CC2)C1=O | – | 26 | – | inhibition [5]: 52%
N=C(N)NCCC[C@H]1NC(=O)N(C(Cc2ccccc2)C(=O)N2CCC3(CCc4ccccc43)CC2)C1=O (stereo partly specified) | – | 60 | – | inhibition [5]: 78%
N=C(N)NCCC[C@H]1NC(=O)N([C@@H](Cc2ccccc2)C(=O)N2CCC3(CCc4ccccc43)CC2)C1=O | – | 3 | – | inhibition [5]: 15%
CC(C)C[C@H](C(=O)N1CCC2(CCc3ccccc32)CC1)N1C(=O)N[C@H](CCCN=C(N)N)C1=O | 450 | – | 2000 | Release [4]: 10%
Cc1ccc(N2CCN(C(=O)[C@@H](CC3CCCCC3)N3C(=O)N[C@H](CCCN=C(N)N)C3=O)CC2)c(C)c1 | 60 | – | 300 | Release [4]: 90%
CC(O)[C@H](C(=O)N1CCC2(CCc3ccccc32)CC1)N1C(=O)N[C@H](CCCN=C(N)N)C1=O (stereo partly specified) | – | 14 | – | inhibition [5]: 57%
N=C(N)NCCC[C@H]1NC(=O)N([C@H](CC(=O)O)C(=O)N2CCC3(CCc4ccccc43)CC2)C1=O | – | 0 | – | –
CSCC[C@H](C(=O)N1CCC2(CCc3ccccc32)CC1)N1C(=O)N[C@H](CCCN=C(N)N)C1=O | 3400 | 57 | – | –
